{"source": "paper PMC6523382", "about": "(Pharmaceutics, 2019)", "key": {"OCT1 [1]": {"target": "T1, OCT1 (Homo sapiens, UniProt O15245)", "T1 sequence (O15245 1-554)": "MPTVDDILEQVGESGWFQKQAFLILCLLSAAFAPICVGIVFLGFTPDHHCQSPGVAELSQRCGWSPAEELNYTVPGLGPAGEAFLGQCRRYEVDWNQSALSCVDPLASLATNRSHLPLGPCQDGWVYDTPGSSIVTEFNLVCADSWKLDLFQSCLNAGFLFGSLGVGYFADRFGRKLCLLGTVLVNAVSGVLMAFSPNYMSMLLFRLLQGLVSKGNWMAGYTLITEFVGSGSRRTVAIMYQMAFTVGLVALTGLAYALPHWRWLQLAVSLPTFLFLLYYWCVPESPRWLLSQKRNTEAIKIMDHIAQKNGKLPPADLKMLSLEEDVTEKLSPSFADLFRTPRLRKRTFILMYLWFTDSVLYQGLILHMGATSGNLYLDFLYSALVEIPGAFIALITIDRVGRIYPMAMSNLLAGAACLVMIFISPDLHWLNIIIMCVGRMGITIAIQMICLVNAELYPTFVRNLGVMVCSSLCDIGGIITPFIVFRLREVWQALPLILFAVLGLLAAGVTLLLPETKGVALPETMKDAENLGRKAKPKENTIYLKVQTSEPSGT", "experiment": "Inhibition of OCT1-mediated [14C]metformin uptake in HEK293-OCT1 cells", "assay_type": "cell-based", "set-up": "host or cells: HEK293", "protocol": "(§1) HEK293 cells overexpressing OCT1, OCT2, MATE1, and MATE2-K (HEK293-OCT1, -OCT2, MATE1, and MATE2-K, respectively; Corning, Tewksbury, MA, USA) were used and characterized as previously described. […] In HEK293-MATE1 or -MATE2-K cells, 2 mM sodium butyrate was also supplemented in the culture medium. […] Sigma, St. Louis, MO, USA) and incubated for 30 min in HBSS. In HEK293-MATE1, or -MATE2-K cells, 40 mM ammonium chloride was also added for the outwardly directed proton gradient. […] After the 5 min incubation, cells were washed three times with 200 µL of ice-cold HBSS immediately after placing the plates on ice. Then, the cells were lysed with 10% sodium dodecyl sulfate (SDS) and the cell lysates were mixed with Optiphase cocktail solution. Thereafter, the radioactivity of the cell lysates was measured using a liquid scintillation counter (Microbeta 2, Perkin Elmer Inc., Boston, MA, USA)."}, "MATE1": {"target": "T2, MATE1 (Homo sapiens, UniProt Q96FL8)", "T2 sequence (Q96FL8 1-570)": "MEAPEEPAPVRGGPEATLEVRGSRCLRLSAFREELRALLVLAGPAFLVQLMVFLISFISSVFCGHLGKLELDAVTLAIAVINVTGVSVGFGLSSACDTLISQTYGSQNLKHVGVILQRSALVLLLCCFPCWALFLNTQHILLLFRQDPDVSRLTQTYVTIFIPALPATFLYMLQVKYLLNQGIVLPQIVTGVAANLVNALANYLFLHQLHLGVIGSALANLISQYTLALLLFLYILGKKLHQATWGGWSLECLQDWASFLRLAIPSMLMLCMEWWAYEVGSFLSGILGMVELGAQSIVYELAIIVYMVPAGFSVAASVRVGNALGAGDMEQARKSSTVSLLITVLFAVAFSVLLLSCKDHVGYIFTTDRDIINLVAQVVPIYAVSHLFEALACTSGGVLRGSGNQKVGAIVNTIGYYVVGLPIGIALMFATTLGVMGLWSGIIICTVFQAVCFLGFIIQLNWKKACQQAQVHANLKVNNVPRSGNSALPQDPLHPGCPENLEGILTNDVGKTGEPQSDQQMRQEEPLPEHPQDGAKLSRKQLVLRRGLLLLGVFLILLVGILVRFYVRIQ", "conditions": "read-out: IC50 for MATE1 reported in the literature; cited from earlier work"}, "OCT1 [2]": {"target": "T1, OCT1", "conditions": "read-out: IC50 for OCT1 reported in the literature; cited from earlier work"}, "MATE2-K [3]": {"target": "T3, MATE2-K (Homo sapiens, UniProt Q86VL8)", "T3 sequence (Q86VL8 1-566 isoform Q86VL8-3)": "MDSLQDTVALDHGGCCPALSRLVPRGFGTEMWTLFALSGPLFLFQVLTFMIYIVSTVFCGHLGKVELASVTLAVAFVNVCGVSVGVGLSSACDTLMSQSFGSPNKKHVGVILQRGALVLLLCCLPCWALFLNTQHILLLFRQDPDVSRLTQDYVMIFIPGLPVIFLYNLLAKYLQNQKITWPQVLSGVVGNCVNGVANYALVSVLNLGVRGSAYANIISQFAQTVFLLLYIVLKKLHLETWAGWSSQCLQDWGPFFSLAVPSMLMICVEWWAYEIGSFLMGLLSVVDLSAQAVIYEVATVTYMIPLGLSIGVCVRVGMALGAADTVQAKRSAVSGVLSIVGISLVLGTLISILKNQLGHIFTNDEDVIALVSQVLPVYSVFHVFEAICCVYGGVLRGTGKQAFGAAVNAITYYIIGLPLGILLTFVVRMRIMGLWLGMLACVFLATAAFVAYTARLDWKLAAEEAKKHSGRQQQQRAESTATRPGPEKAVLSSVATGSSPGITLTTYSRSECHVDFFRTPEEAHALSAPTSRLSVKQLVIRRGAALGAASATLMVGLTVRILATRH", "conditions": "read-out: IC50 for MATE2-K reported in the literature; cited from earlier work"}, "OCT2 [4]": {"target": "T4, OCT2 (Homo sapiens, UniProt O15244)", "T4 sequence (O15244 1-555)": "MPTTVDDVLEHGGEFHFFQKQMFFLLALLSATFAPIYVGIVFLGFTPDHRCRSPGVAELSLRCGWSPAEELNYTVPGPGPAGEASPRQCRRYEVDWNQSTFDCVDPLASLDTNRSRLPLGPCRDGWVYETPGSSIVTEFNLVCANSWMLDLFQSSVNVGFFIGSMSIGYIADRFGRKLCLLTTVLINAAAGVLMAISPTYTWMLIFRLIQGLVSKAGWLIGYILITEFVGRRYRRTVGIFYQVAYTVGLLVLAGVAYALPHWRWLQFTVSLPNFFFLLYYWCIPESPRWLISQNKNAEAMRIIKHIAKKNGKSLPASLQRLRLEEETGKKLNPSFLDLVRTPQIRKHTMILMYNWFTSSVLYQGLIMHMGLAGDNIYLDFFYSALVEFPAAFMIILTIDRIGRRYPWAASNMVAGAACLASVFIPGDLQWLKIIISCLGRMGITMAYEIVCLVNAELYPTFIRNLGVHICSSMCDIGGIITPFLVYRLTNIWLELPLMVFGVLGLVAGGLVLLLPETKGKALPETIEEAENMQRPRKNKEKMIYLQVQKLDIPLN", "experiment": "Inhibition of OCT2-mediated [14C]metformin uptake in HEK293-OCT2 cells", "assay_type": "cell-based", "set-up": "host or cells: HEK293", "protocol": "as §1"}, "MATE2-K [5]": {"target": "T3, MATE2-K", "experiment": "Inhibition of MATE2-K-mediated [14C]metformin uptake in HEK293-MATE2-K cells", "assay_type": "cell-based", "set-up": "host or cells: HEK293", "conditions": "read-out: IC50 on MATE2-K-mediated metformin uptake, 10 µM [14C]metformin, 5 min", "protocol": "as §1"}, "OCT2 [6]": {"target": "T4, OCT2", "conditions": "read-out: IC50 for OCT2 reported in the literature; cited from earlier work"}}, "note": "Like-named read-outs stand apart in the source and are kept apart here.", "data": [{"smiles": "CN/C(=N/CCSCc1nc[nH]c1C)NC#N", "note": "[cimetidine]", "values": [{"measurement": "IC50", "setting": "OCT1 [1]", "result": 61.8, "unit": "µM"}, {"measurement": "IC50", "setting": "MATE1", "result": 0.7, "unit": "µM"}, {"measurement": "IC50", "setting": "OCT1 [2]", "result": 57, "unit": "µM"}, {"measurement": "IC50", "setting": "MATE2-K [3]", "result": 4.8, "unit": "µM"}, {"measurement": "IC50", "setting": "OCT2 [4]", "result": 197, "unit": "µM"}, {"measurement": "IC50", "setting": "MATE2-K [5]", "result": 5.03, "unit": "µM"}, {"measurement": "IC50", "setting": "OCT2 [6]", "result": 110, "unit": "µM"}]}]}
